Drawing on BindingDB's records for doi:10.1021/jm00054a014 (Monsanto Corporate Research, 1993), this text covers IC50 for six compounds.

Each structure is given as a SMILES string.

This experiment concerns the target T1, Dimer of Gag-Pol polyprotein [489-587] (Human immunodeficiency virus 1, UniProt P12497).
T1 construct: 489-587
The experiment is described as follows: Protease Inhibition Assay. As to conditions: pH 6.4; 25 °C. The protocol: IC50 values for inhibition of recombinant HIV protease were determined using the spectrofluorometric assay, which utilized an intramolecularly quenched fluorogenic substrate, 2-(aminobenzoyl)-Thr-Ile-Nle-Phe(p-NO2)-Gln-ArgNH2. Cleavage of the substrate by HIV protease released the fluorescent N-terminal tripeptide from its close apposition to the quenching nitrobenzyl group, resulting in enhanced fluorescence.
Compound `CCCCNC(=O)N(C)C[C@@H](O)[C@H](Cc1ccccc1)NC(=O)[C@H](CC(N)=O)NC(=O)OCc1ccccc1` [benzyl N-[(1S)-1-{[(2S,3R)-4-[(butylcarbamoyl)(methyl)amino]-3-hydroxy-1-phenylbutan-2-yl]carbamoyl}-2-carbamoylethyl]carbamate] gave an IC50 of more than 10 µM.

`CCCCNC(=O)N(CC(C)C)C[C@H](O)[C@H](Cc1ccccc1)NC(=O)[C@H](CC(N)=O)NC(=O)OCc1ccccc1` [benzyl N-[(1S)-1-{[(2S,3S)-4-[(butylcarbamoyl)(2-methylpropyl)amino]-3-hydroxy-1-phenylbutan-2-yl]carbamoyl}-2-carbamoylethyl]carbamate]: the half-maximal inhibitory concentration (IC50) is more than 10 µM.

`CCCCNC(=O)N(C)C[C@H](O)[C@H](Cc1ccccc1)NC(=O)[C@H](CC(N)=O)NC(=O)OCc1ccccc1` [benzyl N-[(1S)-1-{[(2S,3S)-4-[(butylcarbamoyl)(methyl)amino]-3-hydroxy-1-phenylbutan-2-yl]carbamoyl}-2-carbamoylethyl]carbamate] showed an IC50 of more than 10 µM.

Consider `CNC(=O)N(C)C[C@@H](O)[C@H](Cc1ccccc1)NC(=O)[C@H](CC(N)=O)NC(=O)OCc1ccccc1` [benzyl N-[(1S)-2-carbamoyl-1-{[(2S,3R)-3-hydroxy-4-[methyl(methylcarbamoyl)amino]-1-phenylbutan-2-yl]carbamoyl}ethyl]carbamate], for which the concentration for half-maximal inhibition (IC50) was more than 10 µM.

With `CNC(=O)N(CC(C)C)C[C@H](O)[C@H](Cc1ccccc1)NC(=O)[C@H](CC(N)=O)NC(=O)OCc1ccccc1` [benzyl N-[(1S)-2-carbamoyl-1-{[(2S,3S)-3-hydroxy-4-[(methylcarbamoyl)(2-methylpropyl)amino]-1-phenylbutan-2-yl]carbamoyl}ethyl]carbamate], the IC50 is more than 10 µM.

Turning to `CNC(=O)N(C)C[C@H](O)[C@H](Cc1ccccc1)NC(=O)[C@H](CC(N)=O)NC(=O)OCc1ccccc1` [benzyl N-[(1S)-2-carbamoyl-1-{[(2S,3S)-3-hydroxy-4-[methyl(methylcarbamoyl)amino]-1-phenylbutan-2-yl]carbamoyl}ethyl]carbamate], the 50% inhibitory concentration (IC50) is more than 10 µM.
